Columns and labels:
Assay in all cases: KINOMEscan
Type in all cases: binding
[1] = target: T1, ABL1(T315I)-phosphorylated (Homo sapiens, UniProt P00519, T315I)
T1 construct: purchased Eurofins DiscoverX, LLC; host or cells: E. coli BL21-derived (T7 phage) or HEK-293

ABL1-phosphorylated = target: T2, ABL1-phosphorylated (Homo sapiens, UniProt P00519)
T2 construct: purchased Eurofins DiscoverX, LLC; host or cells: E. coli BL21-derived (T7 phage) or HEK-293

p38β = target: T3, p38β (Homo sapiens, UniProt Q15759)
T3 construct: purchased Eurofins DiscoverX, LLC; host or cells: E. coli (BL21-derived, T7 phage) or HEK-293
T3 sequence (Q15759 whole entry): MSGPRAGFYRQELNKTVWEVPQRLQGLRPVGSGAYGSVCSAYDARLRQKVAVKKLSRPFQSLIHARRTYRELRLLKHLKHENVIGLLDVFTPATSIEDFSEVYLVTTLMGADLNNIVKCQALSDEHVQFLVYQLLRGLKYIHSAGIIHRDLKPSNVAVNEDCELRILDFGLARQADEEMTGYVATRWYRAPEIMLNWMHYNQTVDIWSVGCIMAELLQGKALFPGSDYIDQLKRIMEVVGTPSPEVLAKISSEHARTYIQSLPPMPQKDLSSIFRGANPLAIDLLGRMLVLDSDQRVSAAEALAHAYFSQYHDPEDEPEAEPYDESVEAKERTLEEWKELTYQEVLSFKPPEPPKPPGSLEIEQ

KIT(D816V) = target: T4, KIT(D816V) (Homo sapiens, UniProt P10721, D816V)
T4 construct: purchased Eurofins DiscoverX, LLC; host or cells: E. coli (BL21-derived, T7 phage) or HEK-293
T4 sequence (P10721 26-976 D816V): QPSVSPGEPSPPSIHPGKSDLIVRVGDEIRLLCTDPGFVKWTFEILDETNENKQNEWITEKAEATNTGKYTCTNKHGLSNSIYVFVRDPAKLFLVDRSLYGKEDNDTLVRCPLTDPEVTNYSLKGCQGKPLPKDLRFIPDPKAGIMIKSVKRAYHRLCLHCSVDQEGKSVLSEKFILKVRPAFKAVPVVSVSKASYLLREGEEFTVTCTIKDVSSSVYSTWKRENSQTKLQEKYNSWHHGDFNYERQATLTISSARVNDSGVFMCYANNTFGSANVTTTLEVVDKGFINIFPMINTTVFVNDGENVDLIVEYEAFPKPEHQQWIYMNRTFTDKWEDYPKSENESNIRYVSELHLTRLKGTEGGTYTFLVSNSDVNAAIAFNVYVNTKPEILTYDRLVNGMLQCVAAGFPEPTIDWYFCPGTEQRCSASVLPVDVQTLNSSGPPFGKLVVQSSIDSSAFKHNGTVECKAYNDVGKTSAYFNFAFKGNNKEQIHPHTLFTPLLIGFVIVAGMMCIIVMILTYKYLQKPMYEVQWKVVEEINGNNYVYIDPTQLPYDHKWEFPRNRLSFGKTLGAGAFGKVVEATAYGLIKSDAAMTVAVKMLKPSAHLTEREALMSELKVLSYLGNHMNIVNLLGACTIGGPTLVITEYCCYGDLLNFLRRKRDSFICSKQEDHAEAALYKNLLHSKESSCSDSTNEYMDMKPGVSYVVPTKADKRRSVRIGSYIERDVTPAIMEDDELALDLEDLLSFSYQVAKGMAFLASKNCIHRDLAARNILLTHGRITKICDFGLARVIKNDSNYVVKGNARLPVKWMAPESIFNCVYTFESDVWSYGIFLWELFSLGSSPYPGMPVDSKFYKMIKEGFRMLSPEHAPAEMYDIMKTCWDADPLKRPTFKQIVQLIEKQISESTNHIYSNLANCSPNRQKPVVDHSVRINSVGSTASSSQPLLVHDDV

JNK2 = target: T5, JNK2 (Homo sapiens, UniProt P45984)
T5 construct: purchased Eurofins DiscoverX, LLC; host or cells: E. coli (BL21-derived, T7 phage) or HEK-293
T5 sequence (P45984 whole entry): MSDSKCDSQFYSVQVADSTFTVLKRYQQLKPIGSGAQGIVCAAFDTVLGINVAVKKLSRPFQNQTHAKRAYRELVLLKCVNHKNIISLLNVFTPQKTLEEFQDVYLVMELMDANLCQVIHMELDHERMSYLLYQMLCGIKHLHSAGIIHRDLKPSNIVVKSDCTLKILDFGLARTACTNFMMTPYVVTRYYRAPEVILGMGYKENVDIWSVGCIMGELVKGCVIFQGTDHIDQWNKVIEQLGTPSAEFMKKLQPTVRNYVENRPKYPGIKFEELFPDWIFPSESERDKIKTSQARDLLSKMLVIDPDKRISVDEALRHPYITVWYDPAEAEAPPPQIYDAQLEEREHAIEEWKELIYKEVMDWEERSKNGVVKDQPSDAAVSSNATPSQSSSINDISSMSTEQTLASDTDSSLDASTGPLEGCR

PAK4 = target: T6, PAK4 (Homo sapiens, UniProt O96013)
T6 construct: purchased Eurofins DiscoverX, LLC; host or cells: E. coli BL21-derived host (T7 phage) or HEK-293
T6 sequence (O96013 whole entry): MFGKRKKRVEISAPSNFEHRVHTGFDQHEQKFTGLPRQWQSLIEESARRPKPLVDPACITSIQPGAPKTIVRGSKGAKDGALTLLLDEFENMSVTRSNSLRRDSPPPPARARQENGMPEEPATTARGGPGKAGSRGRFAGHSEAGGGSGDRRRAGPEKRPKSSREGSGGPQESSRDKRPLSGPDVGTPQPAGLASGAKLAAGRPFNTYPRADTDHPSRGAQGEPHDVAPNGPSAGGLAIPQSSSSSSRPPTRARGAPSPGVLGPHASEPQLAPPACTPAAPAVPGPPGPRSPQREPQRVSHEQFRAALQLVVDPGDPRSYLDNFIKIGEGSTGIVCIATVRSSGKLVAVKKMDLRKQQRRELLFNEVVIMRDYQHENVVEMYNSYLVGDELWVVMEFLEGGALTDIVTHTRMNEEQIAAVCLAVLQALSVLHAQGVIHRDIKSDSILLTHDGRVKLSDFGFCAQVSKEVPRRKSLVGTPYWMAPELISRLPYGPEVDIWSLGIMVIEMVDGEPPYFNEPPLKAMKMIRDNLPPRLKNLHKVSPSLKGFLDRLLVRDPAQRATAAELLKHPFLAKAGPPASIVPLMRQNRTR

IKKβ = target: T7, IKKβ (Homo sapiens, UniProt O14920)
T7 construct: purchased Eurofins DiscoverX, LLC; host or cells: E. coli (T7 phage) or HEK-293
T7 sequence (O14920 1-756): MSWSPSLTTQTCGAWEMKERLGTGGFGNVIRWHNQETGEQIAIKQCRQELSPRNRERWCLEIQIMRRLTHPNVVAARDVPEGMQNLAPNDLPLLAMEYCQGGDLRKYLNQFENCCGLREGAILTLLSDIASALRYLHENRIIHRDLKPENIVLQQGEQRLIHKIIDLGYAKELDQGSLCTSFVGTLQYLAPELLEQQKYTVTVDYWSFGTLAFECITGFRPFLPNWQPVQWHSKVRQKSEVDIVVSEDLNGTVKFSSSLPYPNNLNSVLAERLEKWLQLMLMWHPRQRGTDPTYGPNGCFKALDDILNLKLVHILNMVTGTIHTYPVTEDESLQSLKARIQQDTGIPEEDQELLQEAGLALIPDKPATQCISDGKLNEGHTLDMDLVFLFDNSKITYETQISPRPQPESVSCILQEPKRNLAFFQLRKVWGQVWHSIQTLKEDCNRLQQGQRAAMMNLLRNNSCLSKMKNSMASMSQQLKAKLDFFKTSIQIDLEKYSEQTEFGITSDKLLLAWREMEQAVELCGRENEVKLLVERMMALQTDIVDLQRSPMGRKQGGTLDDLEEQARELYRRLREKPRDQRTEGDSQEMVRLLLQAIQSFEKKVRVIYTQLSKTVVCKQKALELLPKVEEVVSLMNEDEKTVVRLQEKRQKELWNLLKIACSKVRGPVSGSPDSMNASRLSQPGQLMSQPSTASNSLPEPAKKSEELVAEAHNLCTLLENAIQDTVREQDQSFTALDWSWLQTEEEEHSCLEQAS

MAPKAPK5 = target: T8, MAPKAPK5 (Homo sapiens, UniProt Q8IW41)
T8 construct: purchased Eurofins DiscoverX, LLC; host or cells: E. coli (BL21-derived, T7 phage) or HEK-293
T8 sequence (Q8IW41 1-473): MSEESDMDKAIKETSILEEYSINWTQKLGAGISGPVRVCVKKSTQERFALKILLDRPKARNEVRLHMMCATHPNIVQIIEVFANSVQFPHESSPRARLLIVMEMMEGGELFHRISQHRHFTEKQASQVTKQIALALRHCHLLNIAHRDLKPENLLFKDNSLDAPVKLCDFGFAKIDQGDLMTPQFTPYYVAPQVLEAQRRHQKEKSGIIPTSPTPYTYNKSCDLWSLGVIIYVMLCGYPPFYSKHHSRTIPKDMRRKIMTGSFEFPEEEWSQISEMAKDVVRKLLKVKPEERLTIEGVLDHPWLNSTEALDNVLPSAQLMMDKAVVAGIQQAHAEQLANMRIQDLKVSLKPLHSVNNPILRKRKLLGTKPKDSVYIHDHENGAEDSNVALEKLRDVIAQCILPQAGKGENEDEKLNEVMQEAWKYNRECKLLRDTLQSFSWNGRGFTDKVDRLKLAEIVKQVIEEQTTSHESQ

SMILES	RA @ 1000nM [1]	RA @ 10000nM [1]	RA @ 1000nM (ABL1-phosphorylated)	RA @ 10000nM (ABL1-phosphorylated)	RA @ 1000nM (p38β)	RA @ 10000nM (p38β)	RA @ 1000nM (KIT(D816V))	RA @ 10000nM (KIT(D816V))	RA @ 1000nM (JNK2)	RA @ 10000nM (JNK2)	RA @ 1000nM (PAK4)	RA @ 10000nM (PAK4)	RA @ 1000nM (IKKβ)	RA @ 10000nM (IKKβ)	RA @ 1000nM (MAPKAPK5)	RA @ 10000nM (MAPKAPK5)
CN(C)CCNC(=O)c1cc2c(cnn2CC2CCCCC2)cc1Cc1ccc(F)cc1F [Compound 95, 1-(Cyclohexylmethyl)-5-(2,4-difluorobenzyl)-N-(2-(dimethylamino)ethyl)-1H-indazole-6-carboxamide]	72%	91%	81%	85%	84%	18%	96%	94%	44%	3.8%	100%	88%	93%	80%	100%	100%
CC(C)Cn1ncc2cc(Cc3ccc(F)cc3F)c(C(=O)NCCN(C)C)cc21 [Compound 94, 5-(2,4-Difluorobenzyl)-N-(2-(dimethylamino)ethyl)-1-isobutyl-1H-indazole-6-carboxamide]	93%	90%	79%	53%	72%	15%	94%	100%	52%	8.3%	97%	96%	89%	89%	100%	100%

From PMC12406203 (Journal of Medicinal Chemistry, 2025)
